Experimental findings from patent US9464063B2, “Benzo [B] [1,4] oxazin derivatives as calcium sensing receptor modulators” (LUPIN ATLANTIS HOLDINGS SA, priority 2011, dated 2016) are described below.

This experiment concerns the target T1, Calcium sensing receptor (hCaSR) (Homo sapiens, UniProt P41180).
T1 construct: expressed in transfected cells
T1 sequence (P41180 20-1078): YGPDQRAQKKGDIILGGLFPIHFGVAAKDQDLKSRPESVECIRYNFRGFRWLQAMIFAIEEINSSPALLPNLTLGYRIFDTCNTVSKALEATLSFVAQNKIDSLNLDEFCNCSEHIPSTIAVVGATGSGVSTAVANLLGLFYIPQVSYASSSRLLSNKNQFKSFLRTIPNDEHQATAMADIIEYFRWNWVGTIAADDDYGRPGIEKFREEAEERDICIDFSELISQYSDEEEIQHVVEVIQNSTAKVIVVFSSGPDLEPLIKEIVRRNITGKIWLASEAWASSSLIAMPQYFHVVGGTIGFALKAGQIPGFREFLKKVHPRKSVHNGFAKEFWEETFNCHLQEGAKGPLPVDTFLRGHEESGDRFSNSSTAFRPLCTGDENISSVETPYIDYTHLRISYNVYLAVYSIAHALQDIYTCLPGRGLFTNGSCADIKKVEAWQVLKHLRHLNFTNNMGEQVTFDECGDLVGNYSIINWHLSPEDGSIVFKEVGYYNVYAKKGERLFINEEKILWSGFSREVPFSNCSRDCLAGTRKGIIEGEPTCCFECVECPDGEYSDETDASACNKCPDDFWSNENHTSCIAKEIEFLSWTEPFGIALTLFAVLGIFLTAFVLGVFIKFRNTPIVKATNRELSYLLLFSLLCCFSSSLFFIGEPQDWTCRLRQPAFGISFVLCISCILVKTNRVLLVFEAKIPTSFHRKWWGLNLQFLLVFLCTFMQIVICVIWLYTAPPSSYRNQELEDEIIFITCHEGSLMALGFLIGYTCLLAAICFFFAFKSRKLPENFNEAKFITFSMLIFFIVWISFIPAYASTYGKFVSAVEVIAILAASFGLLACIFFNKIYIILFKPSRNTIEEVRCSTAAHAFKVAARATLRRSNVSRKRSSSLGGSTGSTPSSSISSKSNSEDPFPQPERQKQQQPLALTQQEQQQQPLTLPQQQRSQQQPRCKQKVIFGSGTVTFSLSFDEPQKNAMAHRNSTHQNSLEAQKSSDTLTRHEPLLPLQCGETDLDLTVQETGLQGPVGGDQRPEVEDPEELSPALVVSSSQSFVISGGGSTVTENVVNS
In words: In-vitro assay of calcimimetics through modulation of calcium sensing receptor: increase in intracellular calcium [Ca2+]i, FLIPR. Format: cell-based. The note with it: stably transfected HEK293 cells expressing hCaSR; Fluo4NW dye; 0.3 mM CaCl2; 8-point assay; read-out: EC50 Range. On the procedure: In-Vitro Assay Method of Calcimemtics Through Modulation of Calcium Sensing Receptor (CaSR):
The ability of the compounds to modulate Calcium sensing receptor is determined by measuring an increase in intracellular calcium [Ca^2+]i. Stably transfected HEK293 cells expressing hCaSR_pTriEx-3 hygro vector are developed. Cells are grown overnight on a 96-well plate to 80% confluency in Ham's F12 containing 20% FBS at 37° C., 5% CO2. Subsequently, cells are washed extensively with 20 mM HEPES buffer containing 126 mM NaCl, 1 mM MgCl2 and 4 mM KCl to remove serum components that might interfere with the assay. Cells are loaded with calcium sensing Fluo4NW dye in HEPES base buffer containing 0.1% BSA and 1 mg/ml glucose for 30 minutes to measure changes in intracellular calcium. The activities of the compounds are measured in FLIPR using 0.3 mM CaCl2 in 20 mM HEPES base buffer. The effectiveness of the compound to modulate receptor activity is determined by calculating the EC50 responses for that compound in an 8-point assay and plotted using GraphPad Prism 5.
For orientation: A change in cytosolic calcium serves as a functional read-out for many receptors and channels.

Molecules are shown by their SMILES. Structures can show the parent of a compound that is named as a salt.

As to `COc1ccc(N2CC(CCN[C@H](C)c3cccc4ccccc34)Oc3ccccc32)cc1C(=O)O` (stereo partly drawn) [Example 141a, 2-Methoxy-5-(2-(2-(((R)-1-(naphthalen-1-yl)ethyl)amino)ethyl)-2H-benzo[b] [1,4]oxazin-4(3H)-yl) benzoic acid hydrochloride], the EC50 (usually the concentration that produces a half-maximal response) is less than 20 nM.
Consider `C[C@@H](NCC1CN(c2cccc(CCC(=O)O)c2)c2ccccc2O1)c1cccc2ccccc12` (single isomer, unassigned) [Example 68b, hydrochloride], for which the EC50 lay within 50 to 200 nM.
As for `C[C@@H](NCCC1CN(c2ccc(OCC(=O)O)cc2)c2c(F)cccc2O1)c1cccc2ccccc12` (single isomer, unassigned) [Example 172a, hydrochloride], the EC50 was less than 20 nM.
Take `Cc1ccc(N2CC(CCN[C@H](C)c3cccc4ccccc34)Oc3c(F)cccc32)cc1C(=O)O` (single isomer, unassigned) [Example 159a, hydrochloride]: the EC50 was in the range of 20 to 50 nM.
The value for `COc1ccc(N2CC(CN[C@H](C)c3cccc4ccccc34)Oc3ccccc32)cc1C(=O)O` (single isomer, unassigned) [Example 67b, hydrochloride] was 50 to 200 nM; that for `C[C@@H](NCCC1CN(c2ccc(C(F)(F)F)c(C(=O)O)c2)c2ccccc2O1)c1cccc2ccccc12` (stereo partly drawn) [Example 135a, 5-(2-(2-(((R)-1-(Naphthalen-1-yl)ethyl)amino)ethyl)-2H-benzo [b][1,4]oxazin-4(3H)-yl)-2-(trifluoromethyl) benzoic acid hydrochloride] was less than 20 nM; that for `Cc1ccc(CN2CC(CCN[C@H](C)c3cccc4ccccc34)Oc3ccccc32)cc1C(=O)O` (stereo partly drawn) [Example 177a, 2-Methyl-5-((2-(2-(((R)-1-(naphthalen-1-yl)ethyl)amino)ethyl)-2H-benzo[b][1,4]oxazin-4(3H)-yl)methyl)benzoic acid hydrochloride] was less than 20 nM.
Turning to `COC(=O)c1ccc(N2CC(CN[C@H](C)c3cccc4ccccc34)Oc3ccccc32)cc1` (single isomer, unassigned) [Example 2b, hydrochloride], the EC50 is 20 to 50 nM.
As to `C[C@@H](NCCC1CN(c2ccc(OCC(=O)O)cc2)c2ccc(F)cc2O1)c1cccc2ccccc12` (single isomer, unassigned) [Example 161a, hydrochloride], the EC50 is less than 20 nM.
As to `Cc1ccc(N2CC(CN[C@H](C)c3cccc4ccccc34)Oc3ccccc32)cc1C(=O)NCC(=O)O` (single isomer, unassigned) [Example 79b, hydrochloride], the EC50 is less than 20 nM.
In the case of `Cc1ccc(N2CC(C)(CN[C@H](C)c3cccc4ccccc34)Oc3ccccc32)cc1C(=O)O` (single isomer, unassigned) [Example 86a, hydrochloride], the 50% effective concentration (EC50) was in the range of 50 to 200 nM.
The value for `Cc1cc(N2CC(CCN[C@H](C)c3cccc4ccccc34)Oc3ccccc32)ccc1OCC(=O)O` (stereo partly drawn) [Example 144a, 2-(2-Methyl-4-(2-(2-(((R)-1-(naphlhalen-1-yl)ethyl)amino)ethyl)-2H-benzo[b] [1,4]oxazin-4(3H)-yl)phenoxy)aceticacid hydrochloride] was less than 20 nM; that for `C[C@@H](NCCC1CN(c2ccc(CCC(=O)O)cc2)c2ccccc2O1)c1cccc2ccccc12` (stereo partly drawn) [Example 139a, 3-(4-(2-(2-(((R)-1-(Naphlhalen-1-yl)ethyl)amino)ethyl)-2H-benzo [b][1,4]oxazin-4(3H)-yl)phenyl)propanoic acid hydrochloride] was less than 20 nM.
The figure for `C[C@@H](NCCC1CN(c2cccc(OCC(=O)O)c2)c2cc(F)ccc2O1)c1cccc2ccccc12` (single isomer, unassigned) [Example 169a, hydrochloride] is less than 20 nM; for `COc1ccc(C(=O)O)cc1N1CC(CN[C@H](C)c2cccc3ccccc23)Oc2ccccc21` (single isomer, unassigned) [Example 55a, hydrochloride] it is 50 to 200 nM.
For `C[C@@H](NCC1CN(c2ccc(O)c(C(=O)O)c2)c2ccccc2O1)c1cccc2ccccc12` (single isomer, unassigned) [Example 66b, hydrochloride], the EC50 is less than 20 nM.
The figure for `C[C@@H](NCC1CN(c2cc(F)cc(C(=O)O)c2)c2ccccc2O1)c1cccc2ccccc12` (stereo partly drawn) [Example 72, 3-Fluoro-5-(2-((((R)-1-(naphthalen-1-yl)ethyl)amino)methyl)-2H-benzo [b][1,4]oxazin-4(3H)-yl) benzoic acid hydrochloride] is 50 to 200 nM.
The figure for `C[C@@H](NCC1CN(c2ccc(Cl)c(C(=O)O)c2)c2ccccc2O1)c1cccc2ccccc12` (single isomer, unassigned) [Example 75b, hydrochloride] is 50 to 200 nM.
The value for `Cc1cc(C(=O)O)cc(N2CC(CN[C@H](C)c3cccc4ccccc34)Oc3ccccc32)c1` (single isomer, unassigned) [Example 62a, hydrochloride] was 50 to 200 nM; that for `Cc1ccc(N2C(=O)C(CN[C@H](C)c3cccc4ccccc34)Oc3ccccc32)cc1C(=O)O` (single isomer, unassigned) [Example 87b, hydrochloride] was 20 to 50 nM.
On to `C[C@@H](NCCC1CN(c2ccc(CC(=O)O)cc2)c2ccccc2O1)c1cccc2ccccc12` (stereo partly drawn) [Example 143a, 2-(4-(2-(2-(((R)-1-(Naphthalen-1-yl)ethyl)amino)ethyl)-2H-benzo[b][1,4]oxazin-4(3H)-yl)phenyl) acetic acid hydrochloride], for which the concentration giving a half-maximal response (EC50) lay in the range of 50 to 200 nM.
With `C[C@@H](NCCC1CN(c2cccc(C(=O)O)c2)c2cc(F)ccc2O1)c1cccc2ccccc12` (single isomer, unassigned) [Example 167a], the EC50 was less than 20 nM.
